Measured values reported in ChEMBL document CHEMBL1201862, “PubChem BioAssay data set” (2004).
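Five concentrations, 48 hours, 96-well plates. At the GI50, growth is halved.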 The source made the active and inactive calls. Rule as the data show it: active = GI50 up to about 1.1 µM and inactive = higher.

What was measured:
Assay in all cases: growth of human tumour cells (NCI), 48 h
OVCAR-4 = test system: OVCAR-4
SK-MEL-2 = test system: SK-MEL-2
SNB-75 = test system: SNB-75
RXF 393 = test system: RXF 393
A549 = test system: A549
SK-MEL-5 = test system: SK-MEL-5
A498 = test system: A498
NCI/ADR-RES = test system: NCI/ADR-RES
EKVX = test system: EKVX
DU-145 = test system: DU-145
TK-10 = test system: TK-10
HCT-15 = test system: HCT-15
CAKI-1 = test system: CAKI-1
Hs-578T = test system: Hs-578T
KM12 = test system: KM12
IGROV-1 = test system: IGROV-1
K562 = test system: K562
SK-OV-3 = test system: SK-OV-3
BT-549 = test system: BT-549

Structure (SMILES)	GI50 (OVCAR-4)	GI50 (SK-MEL-2)	GI50 (SNB-75)	GI50 (RXF 393)	GI50 (A549)	GI50 (SK-MEL-5)	GI50 (A498)	GI50 (NCI/ADR-RES)	GI50 (EKVX)	GI50 (DU-145)	GI50 (TK-10)	GI50 (HCT-15)	GI50 (CAKI-1)	GI50 (Hs-578T)	GI50 (KM12)	GI50 (IGROV-1)	GI50 (K562)	GI50 (SK-OV-3)	GI50 (BT-549)
CC(NC(=O)N(C)C)NC(=O)N(C)C	> 10 µM (inactive)	> 10 µM (inactive)	> 10 µM (inactive)	> 10 µM (inactive)	> 10 µM (inactive)	> 10 µM (inactive)	> 10 µM (inactive)	> 10 µM (inactive)	> 10 µM (inactive)	> 10 µM (inactive)	> 10 µM (inactive)	> 10 µM	> 10 µM (inactive)	> 10 µM (inactive)	> 10 µM (inactive)	> 10 µM (inactive)	> 10 µM (inactive)	> 10 µM (inactive)	
COc1ccc(C(=C(I)c2ccccc2)c2ccc(OC)cc2)cc1	> 100 µM (inactive)	> 100 µM (inactive)		> 100 µM (inactive)	> 100 µM (inactive)	49.8 µM (inactive)		> 100 µM (inactive)	> 100 µM (inactive)	> 100 µM (inactive)	> 100 µM (inactive)	65.6 µM	> 100 µM (inactive)	> 100 µM (inactive)	> 100 µM (inactive)	> 100 µM (inactive)	> 100 µM (inactive)	> 100 µM (inactive)	> 100 µM (inactive)
CC1(C)C2C=CC1C(=O)CC2 (configuration not stated)	> 100 µM (inactive)	> 100 µM (inactive)	> 100 µM (inactive)	> 100 µM (inactive)	> 100 µM (inactive)	> 100 µM (inactive)	> 100 µM (inactive)		> 100 µM (inactive)		> 100 µM (inactive)	> 100 µM	> 100 µM (inactive)		> 100 µM (inactive)		> 100 µM (inactive)		
CS(=O)(=O)c1ccc2nc(-c3ccc(O)cc3)sc2c1		20 µM (inactive)		16.9 µM (inactive)	16.4 µM (inactive)	17.4 µM (inactive)	16.4 µM (inactive)	13.8 µM (inactive)	10.5 µM (inactive)	15.7 µM (inactive)	16.3 µM (inactive)	16.9 µM	17.6 µM (inactive)		16 µM (inactive)	19.2 µM (inactive)	33.8 µM (inactive)	17.5 µM (inactive)	16.4 µM (inactive)
C[C@]12CC[C@H](O)CC1=CC[C@@H]1[C@@H]2CC[C@]2(C)C(=N/N)/C(=N\O)C[C@@H]12	57.4 µM (inactive)	88.5 µM (inactive)	7.5 µM (inactive)	> 100 µM (inactive)	> 100 µM (inactive)	> 100 µM (inactive)	16.7 µM (inactive)	> 100 µM (inactive)	74.1 µM (inactive)	> 100 µM (inactive)	> 100 µM (inactive)	3.94 µM	> 100 µM (inactive)		38.2 µM (inactive)	21 µM (inactive)	14.5 µM (inactive)	76 µM (inactive)	32.8 µM (inactive)
C=CCOC(=O)Cn1cc(C)c(=O)[nH]c1=O	> 100 µM (inactive)	> 100 µM (inactive)	> 100 µM (inactive)		> 100 µM (inactive)	> 100 µM (inactive)	> 100 µM (inactive)	> 100 µM (inactive)	> 100 µM (inactive)	> 100 µM (inactive)	> 100 µM (inactive)	> 100 µM	> 100 µM (inactive)	> 100 µM (inactive)	> 100 µM (inactive)	> 100 µM (inactive)	> 100 µM (inactive)	> 100 µM (inactive)	
CCOc1ccc(NC(=O)C(=O)Nn2c(N)nnc2N)cc1	> 100 µM (inactive)	> 100 µM (inactive)	> 100 µM (inactive)	> 100 µM (inactive)	> 100 µM (inactive)	> 100 µM (inactive)	> 100 µM (inactive)	> 100 µM (inactive)	> 100 µM (inactive)		> 100 µM (inactive)	> 100 µM	> 100 µM (inactive)	> 100 µM (inactive)	> 100 µM (inactive)	> 100 µM (inactive)	> 100 µM (inactive)	> 100 µM (inactive)	> 100 µM (inactive)
CC1(C)C2CC3C(C)(C2)C31c1cc(Cl)ccc1N (configuration not stated)	15.2 µM (inactive)	15 µM (inactive)	11.9 µM (inactive)	10.3 µM (inactive)	11.9 µM (inactive)	14.2 µM (inactive)	17.7 µM (inactive)	14.7 µM (inactive)	13.7 µM (inactive)	14 µM (inactive)	15.5 µM (inactive)	10.9 µM	15.6 µM (inactive)		14.4 µM (inactive)	14.5 µM (inactive)	10.5 µM (inactive)	15.5 µM (inactive)	15.5 µM (inactive)
O=C1CSC2(CC(/C=C/C=C/c3ccccc3)=NN2c2cccc(S(=O)(=O)O)c2)N1c1nc2ccccc2s1 (configuration not stated)	36.9 µM (inactive)	26 µM (inactive)	> 100 µM (inactive)	> 100 µM (inactive)	50.8 µM (inactive)	35.2 µM (inactive)	26.4 µM (inactive)	51.1 µM (inactive)	49 µM (inactive)		34.5 µM (inactive)	67.9 µM	54.5 µM (inactive)		45.8 µM (inactive)	33.7 µM (inactive)	29 µM (inactive)		51.5 µM (inactive)
Cc1c2ccncc2c(C)c2c1[nH]c1ccc(O)c(OCC(F)(F)F)c12	4.08 µM (inactive)	12 µM (inactive)	9.93 µM (inactive)		3.9 µM (inactive)	5.56 µM (inactive)	15.2 µM (inactive)		10.3 µM (inactive)		13.6 µM (inactive)		9.62 µM (inactive)			8.22 µM (inactive)	3.16 µM (inactive)	10.2 µM (inactive)	
O=C(C#Cc1cnc(O)nc1O)c1ccccc1Cl	17.4 µM (inactive)	16.2 µM (inactive)	19.9 µM (inactive)	3.07 µM (inactive)	79.1 µM (inactive)	15 µM (inactive)	17.9 µM (inactive)		20 µM (inactive)		21.6 µM (inactive)	15 µM	17.1 µM (inactive)		29.6 µM (inactive)	19.5 µM (inactive)	4.83 µM (inactive)	51.3 µM (inactive)	
CCN(C(=O)N[C@@H](Cc1ccccc1)C(=O)N[C@@H](CC(C)C)C(=O)OC)c1ccccc1	28.1 µM (inactive)	61 µM (inactive)		19.1 µM (inactive)	30.5 µM (inactive)			26.5 µM (inactive)	18.7 µM (inactive)	17.3 µM (inactive)	33 µM (inactive)	15.8 µM	32.6 µM (inactive)		29.4 µM (inactive)	17 µM (inactive)	31.3 µM (inactive)	40.6 µM (inactive)	57.1 µM (inactive)
Oc1cc(N2CCCC2)ccc1/C=N/N1C(=S)N(c2ccccc2)C(=N\c2ccccc2)/C1=N/c1ccccc1		> 100 µM (inactive)		14.2 µM (inactive)	> 100 µM (inactive)	73.3 µM (inactive)		> 100 µM (inactive)	> 100 µM (inactive)	> 100 µM (inactive)	75 µM (inactive)	> 100 µM	> 100 µM (inactive)	60.4 µM (inactive)	> 100 µM (inactive)	> 100 µM (inactive)	> 100 µM (inactive)	99.8 µM (inactive)	> 100 µM (inactive)
COC(=O)c1ccc2cc(O)ccc2c1	> 100 µM (inactive)	> 100 µM (inactive)		> 100 µM (inactive)	69.2 µM (inactive)	56.4 µM (inactive)	38.5 µM (inactive)	47.9 µM (inactive)	55.8 µM (inactive)	> 100 µM (inactive)	> 100 µM (inactive)	> 100 µM	> 100 µM (inactive)		39.9 µM (inactive)	75.7 µM (inactive)	41.5 µM (inactive)	> 100 µM (inactive)	79.6 µM (inactive)
Cc1nc2ccc(Cl)cc2c2c1CCN2c1ccc(F)cc1	5.9 µM (inactive)	23 µM (inactive)	0.0266 µM (active)	17.1 µM (inactive)	43.5 µM (inactive)	7.87 µM (inactive)	0.891 µM (active)	13 µM (inactive)	45.2 µM (inactive)	58.3 µM (inactive)	18.1 µM (inactive)	36 µM	18.4 µM (inactive)	26.3 µM (inactive)	25.8 µM (inactive)	9.42 µM (inactive)	5.35 µM (inactive)	> 100 µM (inactive)	
CNC(=S)/C(C#N)=C(\N)N1CCCC1		> 100 µM (inactive)		> 100 µM (inactive)	> 100 µM (inactive)	> 100 µM (inactive)	> 100 µM (inactive)	> 100 µM (inactive)	> 100 µM (inactive)	> 100 µM (inactive)	> 100 µM (inactive)	> 100 µM	> 100 µM (inactive)	> 100 µM (inactive)	> 100 µM (inactive)	> 100 µM (inactive)	> 100 µM (inactive)	> 100 µM (inactive)	
CCCCC1(O)CC2CC1C(C)C2(C)C (configuration not stated)	> 100 µM (inactive)		> 100 µM (inactive)	> 100 µM (inactive)	> 100 µM (inactive)	> 100 µM (inactive)		> 100 µM (inactive)	> 100 µM (inactive)	> 100 µM (inactive)	> 100 µM (inactive)	> 100 µM	> 100 µM (inactive)	84.5 µM (inactive)	> 100 µM (inactive)	> 100 µM (inactive)	> 100 µM (inactive)	> 100 µM (inactive)	> 100 µM (inactive)
